Experimental data taken from PMC7072451, “Membrane Binding of Neuronal Calcium Sensor-1: Highly Specific Interaction with Phosphatidylinositol-3-Phosphate” (Biomolecules, 2020).

Molecular target: T1, myristoylated NCS-1 (NCS-1^WT) (Homo sapiens, UniProt P62166)
T1 construct: gene NCS1; full-length, N-myristoylated by co-expressed yeast NMT in E. coli (pET22b+), sulfo-cyanine-3 maleimide labelled; unlabelled protein used as titrant
Experiment: fluorescence correlation spectroscopy, titration of PI liposomes with unlabelled protein
Type: binding
Conditions: Ca2+ present (1 mM CaCl2), pH 8.0, 100 mM NaCl; multilamellar liposomes of brain PI; concentration is of the protein; highly cooperative; sulfo-cyanine-3 labelled protein; read-out: dissociation constant

T1 sequence (P62166 2-190): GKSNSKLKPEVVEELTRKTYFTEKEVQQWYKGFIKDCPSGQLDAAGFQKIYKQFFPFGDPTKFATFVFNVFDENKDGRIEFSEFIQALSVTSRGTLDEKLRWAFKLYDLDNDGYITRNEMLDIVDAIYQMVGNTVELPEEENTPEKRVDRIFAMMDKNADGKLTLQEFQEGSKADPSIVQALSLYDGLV

Kd: 3000 nM
Substance: phosphatidylinositol
